Earlier results, collected in patent publication US20180193334A1, “PHARMACEUTICAL COMPOSITION OF VORTIOXETINE OR SALT THEREOF, AND PREPARATION METHOD THEREFOR” (Changzhou Fangnan Pharmaceuticals, Ltd., priority 2015, published 2018).
≈ marks a conversion by molar mass, not a printed value.

Structure (SMILES)	solubility in water
Cc1ccc(Sc2ccccc2N2CCNCC2)c(C)c1 [vortioxetine free base]	100 µg/mL (≈ 335 µM)
Br.Cc1ccc(Sc2ccccc2N2CCNCC2)c(C)c1 [1-[2-(2,4-methylphenylthio)phenyl] piperazine hydrobromide]	1200 µg/mL
